Converted amounts (≈) assume the structure as drawn. “And” between values parts separate entries of the source, which are not always exact repeats. Equal values may be shown once. Read-outs that look alike come from different tables or passages of the source.
Legend:
Assay type in all cases: physicochemical
[1] = Equilibrium solubility in EPO-solutions, 96-well SORESOS assay; details: for Adjusted SE in EPO 0.1% / Adjusted SE in EPO 0.5% / Adjusted SE in EPO 1.0% / Adjusted SE in EPO 2.0% / Adjusted SE in EPO 3.0% / Adjusted SE in EPO 4.0% / Adjusted SE in EPO 5.0%: vs adjusted solubility in water at pH 6.0; for Non-adjusted SE in EPO 0.1% (in brackets) / Non-adjusted SE in EPO 0.5% (in brackets) / Non-adjusted SE in EPO 1.0% (in brackets) / Non-adjusted SE in EPO 2.0% (in brackets) / Non-adjusted SE in EPO 3.0% (in brackets) / Non-adjusted SE in EPO 4.0% (in brackets) / Non-adjusted SE in EPO 5.0% (in brackets): vs measured solubility in water; for course of solubility with polymer concentration: EPO 0.1-5%
Procedure: Polymer solutions were prepared by dissolving EPO (0.1%, 0.5%, 1%, 2%, 3%, 4%, 5% (w/w)) in deionized water and adjusting all solutions to pH 6.0 by hydrochloric acid and sodium hydroxide at 25° C. Solutions were checked carefully for absence of particles.
(§1) Solubility of compounds in EPO-solutions was determined by using a 96-well assay that was introduced to measure equilibrium solubility in parallel to a solid state analysis of the residual solid (SORESOS)^21 as described before.^22 In brief, APIs were dispensed using the powder-picking-method^23 in a 96-well flat bottom plate (Corning Inc., Durham, USA). Mixtures were agitated by head-over-head rotation for 48 h at room temperature after addition of stir bars and polymer solutions (150 μl). After mixing, the suspensions were carefully transferred into 96-well filter plates and the liquid and solid phase were separated by centrifugation. […] An isocratic flow (composition of the mobile phase is listed in Table 2) was applied for 0.3 min at a flow rate of 0.75 mL/min. […] Solid state analysis of residual solid was performed by X-ray powder diffraction (XRPD) using a STOE Stadi P Combi diffractometer with a primary Ge-monochromator (Cu Kα radiation), imaging plate position sensitive detector (IP-PSD), and a 96-well sample stage as described before.^21 The IP-PSD allowed simultaneous recording of the diffraction pattern on both sides of the primary beam which were summed up by the software STOE WinXPOW to reduce effects related to poor crystal orientation statistics. Samples were analyzed directly in the 96-well filter plate with an exposure time of 5 min per well.
as §1, with “After addition of stir bars and polymer solutions (150 μl), mixtures” for “Mixtures”, “temperature.” for “temperature after addition of stir bars and polymer solutions (150 μl).”, “7)” for “2)”

[2] = pKa via photometric titration (Roche internal data); details: measured via photometric titration; basic model compounds
[3] = Drug solubility in water (aqueous solubility); details: thermodynamic from solid
[4] = pH of drug suspensions in water and in EPO-solutions; details: EPO 0.5%, 2%, and 5%; solutions started at pH 6.0
Procedure: All excipient solutions were adjusted to pH 6.0 before incubation and following equilibration, the residual solid was analyzed by means of XRPD. […] This extrapolation method was based on the Henderson-Hasselbalch equation and it is generally reliable when the experimental solubility value is within one pH unit difference.^25

[5] = 24 h incubation, pH not adjusted, read-out: Solubility in water (standard deviation, n = 3)
[6] = extrapolated to pH 6.0 by Henderson-Hasselbalch equation, read-out: Adjusted solubility at pH 6.0

| Structure (SMILES) | Adjusted SE in EPO 0.1% [1] | Non-adjusted SE in EPO 0.1% (in brackets) [1] | Adjusted SE in EPO 0.5% [1] | Non-adjusted SE in EPO 0.5% (in brackets) [1] | Adjusted SE in EPO 1.0% [1] | Non-adjusted SE in EPO 1.0% (in brackets) [1] | Adjusted SE in EPO 2.0% [1] | Non-adjusted SE in EPO 2.0% (in brackets) [1] | Adjusted SE in EPO 3.0% [1] | Non-adjusted SE in EPO 3.0% (in brackets) [1] | Adjusted SE in EPO 4.0% [1] | Non-adjusted SE in EPO 4.0% (in brackets) [1] | Adjusted SE in EPO 5.0% [1] | Non-adjusted SE in EPO 5.0% (in brackets) [1] | pKa [2] | solubility at 24 h [3, 5] [µg/mL] | solubility at 24 h [3, 6] [µg/mL] | course of solubility with polymer concentration ([1]; 48 h, room temperature) | further results |
| --- | --- | --- | --- | --- | --- | --- | --- | --- | --- | --- | --- | --- | --- | --- | --- | --- | --- | --- | --- |
| CCOC(=O)C1=C(C)NC(C)=C(C(=O)OC)C1c1cccc(Cl)c1Cl (stereo not drawn) [FLP, felodipine] |  |  |  |  |  |  |  |  |  |  |  |  |  |  |  |  |  | increase of solubility with polymer concentration up to 5% EPO | solubility ([3]; neutral model compounds, n = 3): 0.4 µg/mL (≈ 1.04 µM) |
| COC1=CC(=O)C[C@@H](C)[C@]12Oc1c(Cl)c(OC)cc(OC)c1C2=O [GFN, griseofulvin] |  |  |  |  |  |  |  |  |  |  |  |  |  |  |  |  |  | solubility decreased again and finally reached a kind of plateau | EPO concentration of maximum solubility ([1]; 48 h, room temperature): 2 % EPO (w/w) |
| OC(c1cc(C(F)(F)F)nc2c(C(F)(F)F)cccc12)C1CCCCN1 (stereo not drawn) [MFQ, mefloquine] | 0.2 | 7.2 | 1.0 | 37.3 | 1.5 | 58.3 | 2.4 |  | 3.6 | 141.5 | 4.4 | 172.5 | 4.8 | 186.2 | 9.2 | 63 (≈ 167 µM) | 2450 (≈ 6470 µM) | increase of solubility with polymer concentration up to 5% EPO | solubility at 48 h ([1]; aqueous EPO polymer solution, pH 6, aqueous with cosolvent or surfactant or cyclodextrin, thermodynamic from solid, EPO 5%, 48 h, room temperature): 12000 µg/mL (≈ 31700 µM); pH after 48 h in EPO [4]: 6.3 and 6.4 |
| O=c1[nH]c2ccccc2n1C1CCN(CCCC(c2ccc(F)cc2)c2ccc(F)cc2)CC1 [PMZ, Pimozide] | 2.0 | 12.8 | 5.4 | 35.3 | 5.0 | 32.3 | 6.9 | 45.0 | 8.5 | 55.2 | 9.3 | 60.2 | 9.8 | 63.8 | 8.6 | 2 (≈ 4.33 µM) | 13 (≈ 28.2 µM) | increase of solubility with polymer concentration up to 5% EPO |  |

Now from value to molecule, other results behind:

| Adjusted SE in EPO 0.1% [1] | Non-adjusted SE in EPO 0.1% (in brackets) [1] | Adjusted SE in EPO 0.5% [1] | Non-adjusted SE in EPO 0.5% (in brackets) [1] | Adjusted SE in EPO 1.0% [1] | Non-adjusted SE in EPO 1.0% (in brackets) [1] | Adjusted SE in EPO 2.0% [1] | Non-adjusted SE in EPO 2.0% (in brackets) [1] | Adjusted SE in EPO 3.0% [1] | Non-adjusted SE in EPO 3.0% (in brackets) [1] | Adjusted SE in EPO 4.0% [1] | Non-adjusted SE in EPO 4.0% (in brackets) [1] | Adjusted SE in EPO 5.0% [1] | Non-adjusted SE in EPO 5.0% (in brackets) [1] | pKa [2] | solubility at 24 h [3, 5] [µg/mL] | solubility at 24 h [3, 6] [µg/mL] | Structure (SMILES) | course of solubility with polymer concentration ([1]; 48 h, room temperature) | further results |
| --- | --- | --- | --- | --- | --- | --- | --- | --- | --- | --- | --- | --- | --- | --- | --- | --- | --- | --- | --- |
| 2.7 (2.7) | 2.7 (2.7) | 10.3 (10.3) | 10.3 (10.3) | 15.3 (15.3) | 15.3 (15.3) | 29.3 (29.3) | 29.3 (29.3) | 37.3 (37.3) | 37.3 (37.3) | 39.0 (39.0) | 39.0 (39.0) | 37.0 (37.0) | 37.0 (37.0) | 7.8 | 1 (≈ 2.71 µM) | 1 (≈ 2.71 µM) | C(=C\c1ccccc1)/CN1CCN(C(c2ccccc2)c2ccccc2)CC1 [CNZ, Cinnarizine] |  |  |
| 1.7 | 24.3 | 6.7 | 94.9 | 6.9 |  | 10.7 | 152.3 | 11.1 | 157.4 | 10.6 | 150.9 | 11.7 | 165.9 | 8.1 |  | 71 (≈ 175 µM) | COc1ccccc1OCCNCC(O)COc1cccc2[nH]c3ccccc3c12 (stereo not drawn) [CVD, carvedilol] |  | EPO concentration at which solubility reached a plateau ([1]; 48 h, room temperature): 2 % EPO (w/w) |
| 2.5 | 16.0 | 6.6 | 43.2 | 8.3 | 54.0 | 11.7 | 76.2 | 15.3 | 99.3 | 14.6 | 94.8 | 14.0 | 91.2 | 9.1 | 2 (≈ 4.24 µM) | 13 (≈ 27.6 µM) | CC(C)(C)c1ccc(C(O)CCCN2CCC(C(O)(c3ccccc3)c3ccccc3)CC2)cc1 (stereo not drawn) [TFD, terfenadine] |  | EPO concentration at which solubility reached a plateau ([1]; 48 h, room temperature): 2 % EPO (w/w) |
|  |  |  |  |  |  |  |  |  |  |  |  |  |  | 9.7 |  |  | CC/C(=C(\c1ccccc1)c1ccc(OCCN(C)C)cc1)c1ccccc1 [TMX, tamoxifen] |  |  |

Reference: patent US11491109B2, “Pharmaceutical compositions for basic or neutral, low molecular weight compounds” (Hoffmann-La Roche Inc., priority 2017, dated 2022)
